Reference: PubChem BioAssay (NCI)
Values joined by “and” are separate entries in the source; they are usually repeats but may differ in a detail not shown here. Equal entries are not always repeated.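 Step 1: Grow cells in 96-well plates. Step 2: Expose to compound for 48 hours at 5 concentrations. Step 3: Interpolate endpoints linearly; if unreached, use highest concentration. The concentration for 50% growth inhibition is given as GI50. TGI: concentration producing complete growth inhibition.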

How the values were obtained:
Test in all cases: DTP human tumour cell line panel, 48 h
U251 CNS = system: U251 CNS
OVCAR-4 ovarian = system: OVCAR-4 ovarian
SN12C renal = system: SN12C renal
K-562 leukemia = system: K-562 leukemia
HCT-15 colon = system: HCT-15 colon
SK-MEL-5 melanoma = system: SK-MEL-5 melanoma
HOP-92 NSCLC = system: HOP-92 NSCLC
HOP-62 NSCLC = system: HOP-62 NSCLC
MDA-MB-231 breast = system: MDA-MB-231 breast
LOX IMVI melanoma = system: LOX IMVI melanoma

SMILES	GI50 (U251 CNS) [µM]	TGI (U251 CNS) [µM]	GI50 (OVCAR-4 ovarian) [µM]	TGI (OVCAR-4 ovarian)	GI50 (SN12C renal) [µM]	TGI (SN12C renal)	GI50 (K-562 leukemia) [µM]	TGI (K-562 leukemia)	GI50 (HCT-15 colon) [µM]	TGI (HCT-15 colon) [µM]	GI50 (SK-MEL-5 melanoma) [µM]	TGI (SK-MEL-5 melanoma)	GI50 (HOP-92 NSCLC) [µM]	TGI (HOP-92 NSCLC)	GI50 (HOP-62 NSCLC) [µM]	TGI (HOP-62 NSCLC)	GI50 (MDA-MB-231 breast) [µM]	TGI (MDA-MB-231 breast) [µM]	GI50 (LOX IMVI melanoma) [µM]	TGI (LOX IMVI melanoma) [µM]
Nc1c(C(=O)Nc2cccc3ccccc23)sc2nc3c(cc12)CCCCCC3	1.87	> 50	5.75	> 50 µM	3.4	> 50 µM	0.301	> 50 µM	0.772	> 50	0.929	6.85 µM	6.58	> 50 µM	5.05	> 50 µM	2.75	> 50	1.96	> 50
O=C1COCCN1c1ccc(NCc2cn(Cc3ccc(F)cc3)c3ccccc23)cc1	0.645	38.5	0.173	3 µM	4.08	> 83.7 µM	1.25	> 51.3 µM	4.13	31	2.6	11.2 µM	1.74	11.8 µM	0.783	> 31.7 µM	4.9	27.5	5.32	25.3
CCOc1ccc(-n2cc(-c3ccc(N(C)C)cc3)[n+]3c2CCCCC3)cc1	0.312	> 100	0.103	> 100 µM	0.891	19 µM	0.128	> 100 µM	10.1	> 100	0.0958	0.475 µM	1.14	6.43 µM	2.3	> 77.9 µM	1.93	> 27.8	0.359	> 65.6
COc1cc2c(cc1OC)-c1c(c3ccc([N+](=O)[O-])cc3c(=O)n1CCCBr)C2=O	5.14	> 100	34.1	> 100 µM	4.31	> 100 µM	5.2	> 100 µM	61.8	> 100	1.72	23.7 µM	> 100	> 100 µM	20.7	> 100 µM	96.4	> 100	3.9	42.4
O=P1(NCCCl)OCCC(OO)N1CCCl (stereo not given)		> 100		39.1 µM		> 100 µM		> 64 µM		33.9		> 100 µM		33.4 µM		> 100 µM		> 100		37.5
COc1nc(C(Cl)(Cl)Cl)c(Cl)c(OC)c1Cl		69.9	> 52.1	99.9 µM and 66.3 µM		> 52.9 µM and 74 µM	> 42.6	> 63.4 µM and 94.2 µM		75.6	19.6	34.5 µM and 83.2 µM	> 40.4	> 59.3 µM and 62 µM	> 43.2	> 62.8 µM and 22.5 µM		72.5		62.6
